Reference: PMC8429728, “TNK1 is a ubiquitin-binding and 14-3-3-regulated kinase that can be targeted to block tumor growth” (Nature Communications, 2021)
Read-outs that look alike come from different tables or passages of the source.

How the values were obtained:
Experiment in all cases: biochemical
Set-up in all cases: Reaction Biology 371-kinase panel at Km ATP, per cent enzyme activity relative to DMSO, single dose in duplicate
Conditions in all cases: duplicate measurements, Km ATP
[1] = target: TLK2 (Homo sapiens, UniProt Q86UE8)
Chain of TLK2 (Q86UE8 whole entry): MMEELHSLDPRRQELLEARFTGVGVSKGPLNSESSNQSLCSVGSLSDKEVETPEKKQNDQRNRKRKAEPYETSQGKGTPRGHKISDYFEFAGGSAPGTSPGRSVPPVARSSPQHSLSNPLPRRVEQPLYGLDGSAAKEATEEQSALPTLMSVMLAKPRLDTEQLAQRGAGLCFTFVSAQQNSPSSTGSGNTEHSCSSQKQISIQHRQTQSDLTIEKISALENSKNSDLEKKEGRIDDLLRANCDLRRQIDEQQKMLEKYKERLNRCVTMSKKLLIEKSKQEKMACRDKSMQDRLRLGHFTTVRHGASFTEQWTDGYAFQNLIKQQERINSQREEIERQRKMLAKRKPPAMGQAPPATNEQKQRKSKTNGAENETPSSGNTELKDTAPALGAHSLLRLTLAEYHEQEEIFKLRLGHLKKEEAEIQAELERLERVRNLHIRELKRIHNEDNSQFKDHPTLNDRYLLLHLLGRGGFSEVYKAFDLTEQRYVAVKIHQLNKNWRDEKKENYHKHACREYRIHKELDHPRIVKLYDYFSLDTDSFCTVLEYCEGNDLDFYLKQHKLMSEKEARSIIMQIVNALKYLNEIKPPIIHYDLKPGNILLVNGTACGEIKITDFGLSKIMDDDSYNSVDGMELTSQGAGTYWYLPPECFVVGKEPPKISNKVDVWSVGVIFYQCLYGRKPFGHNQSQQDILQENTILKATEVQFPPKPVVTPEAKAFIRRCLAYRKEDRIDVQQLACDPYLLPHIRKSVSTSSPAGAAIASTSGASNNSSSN
In short: (§1)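 Percent kinase activity relative to vehicle (DMSO) is reported for a 371-kinase in vitro panel at 300 nM compound; IC50 values derive from variable-slope sigmoidal fits with the lower plateau fixed at 0.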

[2] = target: PHKg1 (Homo sapiens, UniProt Q16816)
Chain of PHKg1 (Q16816 whole entry): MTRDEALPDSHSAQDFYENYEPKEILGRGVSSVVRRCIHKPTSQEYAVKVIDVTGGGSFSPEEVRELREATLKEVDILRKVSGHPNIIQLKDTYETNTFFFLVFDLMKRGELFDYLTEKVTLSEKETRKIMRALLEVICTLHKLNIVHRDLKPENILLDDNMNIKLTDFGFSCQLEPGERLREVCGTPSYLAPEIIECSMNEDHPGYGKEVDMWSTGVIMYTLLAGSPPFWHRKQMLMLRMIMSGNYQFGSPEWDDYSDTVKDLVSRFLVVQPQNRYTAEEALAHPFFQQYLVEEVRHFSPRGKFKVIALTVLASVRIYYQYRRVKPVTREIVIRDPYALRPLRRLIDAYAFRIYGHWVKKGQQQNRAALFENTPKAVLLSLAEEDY
In short: as §1

[3] = target: BRSK1 (Homo sapiens, UniProt Q8TDC3)
In short: as §1

[4] = target: T1, IR (Homo sapiens, UniProt P06213)
T1 construct: gene INSR
In short: as §1

[5] = target: T2, MST4 (Homo sapiens, UniProt Q9P289)
T2 construct: gene STK26
In short: as §1

[6] = target: PAK1 (Homo sapiens, UniProt Q13153)
Chain of PAK1 (Q13153 whole entry): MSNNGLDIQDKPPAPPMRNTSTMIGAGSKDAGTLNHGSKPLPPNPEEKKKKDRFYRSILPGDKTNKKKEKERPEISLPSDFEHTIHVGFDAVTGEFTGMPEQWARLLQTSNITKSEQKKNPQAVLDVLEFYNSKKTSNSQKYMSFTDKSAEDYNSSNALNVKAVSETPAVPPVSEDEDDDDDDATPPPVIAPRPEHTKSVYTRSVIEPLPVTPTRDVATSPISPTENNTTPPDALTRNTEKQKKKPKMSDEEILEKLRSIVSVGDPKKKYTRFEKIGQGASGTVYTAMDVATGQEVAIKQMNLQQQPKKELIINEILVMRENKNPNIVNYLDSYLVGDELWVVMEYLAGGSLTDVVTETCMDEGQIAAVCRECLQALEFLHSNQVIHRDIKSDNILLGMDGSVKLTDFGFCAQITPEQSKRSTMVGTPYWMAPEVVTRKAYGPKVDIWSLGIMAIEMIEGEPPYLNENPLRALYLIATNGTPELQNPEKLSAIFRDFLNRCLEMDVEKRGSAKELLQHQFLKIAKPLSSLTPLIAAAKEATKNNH
In short: as §1

[7] = target: NEK1 (Homo sapiens, UniProt Q96PY6)
Chain of NEK1 (Q96PY6 whole entry): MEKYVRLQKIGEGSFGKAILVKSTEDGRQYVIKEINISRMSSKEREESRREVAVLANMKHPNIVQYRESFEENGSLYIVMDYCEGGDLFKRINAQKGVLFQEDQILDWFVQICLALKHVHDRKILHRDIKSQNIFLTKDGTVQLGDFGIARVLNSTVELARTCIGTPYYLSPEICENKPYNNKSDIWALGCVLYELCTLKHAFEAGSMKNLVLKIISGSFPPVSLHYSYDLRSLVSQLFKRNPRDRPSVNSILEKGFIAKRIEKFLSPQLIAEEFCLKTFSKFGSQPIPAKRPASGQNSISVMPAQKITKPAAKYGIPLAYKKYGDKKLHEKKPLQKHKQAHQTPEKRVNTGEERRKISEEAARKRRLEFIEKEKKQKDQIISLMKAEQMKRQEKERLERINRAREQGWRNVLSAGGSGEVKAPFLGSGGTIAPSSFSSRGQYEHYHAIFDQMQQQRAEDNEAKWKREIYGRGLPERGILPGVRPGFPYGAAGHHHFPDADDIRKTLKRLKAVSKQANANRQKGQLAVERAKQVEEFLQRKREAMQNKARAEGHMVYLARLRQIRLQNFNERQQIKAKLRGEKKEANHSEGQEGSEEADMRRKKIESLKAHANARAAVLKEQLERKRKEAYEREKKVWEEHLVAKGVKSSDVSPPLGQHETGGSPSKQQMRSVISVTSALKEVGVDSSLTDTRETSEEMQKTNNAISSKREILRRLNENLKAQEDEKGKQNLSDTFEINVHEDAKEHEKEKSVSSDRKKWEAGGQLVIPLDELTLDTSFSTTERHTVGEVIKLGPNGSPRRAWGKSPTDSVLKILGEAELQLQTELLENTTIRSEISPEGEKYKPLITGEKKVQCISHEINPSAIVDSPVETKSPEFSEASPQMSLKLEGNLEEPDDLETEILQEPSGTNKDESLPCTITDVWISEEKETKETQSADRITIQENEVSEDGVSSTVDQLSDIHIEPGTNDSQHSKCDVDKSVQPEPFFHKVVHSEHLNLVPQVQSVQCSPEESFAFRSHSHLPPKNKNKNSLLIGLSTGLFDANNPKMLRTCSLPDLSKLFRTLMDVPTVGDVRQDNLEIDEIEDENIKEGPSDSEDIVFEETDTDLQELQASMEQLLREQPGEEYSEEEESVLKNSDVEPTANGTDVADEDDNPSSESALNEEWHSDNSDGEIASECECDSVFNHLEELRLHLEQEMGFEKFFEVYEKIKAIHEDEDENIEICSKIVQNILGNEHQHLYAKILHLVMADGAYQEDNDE
In short: as §1

[8] = target: MARK4 (Homo sapiens, UniProt Q96L34)
In short: as §1

[9] = target: ROS/ROS1 (Homo sapiens, UniProt P08922)
In short: as §1

[10] = target: T3, AURORA C (Homo sapiens, UniProt Q9UQB9)
T3 construct: gene AURKC
In short: as §1

[11] = target: T4, TNK1 (Homo sapiens, UniProt Q13470)
T4 sequence (Q13470 1-666): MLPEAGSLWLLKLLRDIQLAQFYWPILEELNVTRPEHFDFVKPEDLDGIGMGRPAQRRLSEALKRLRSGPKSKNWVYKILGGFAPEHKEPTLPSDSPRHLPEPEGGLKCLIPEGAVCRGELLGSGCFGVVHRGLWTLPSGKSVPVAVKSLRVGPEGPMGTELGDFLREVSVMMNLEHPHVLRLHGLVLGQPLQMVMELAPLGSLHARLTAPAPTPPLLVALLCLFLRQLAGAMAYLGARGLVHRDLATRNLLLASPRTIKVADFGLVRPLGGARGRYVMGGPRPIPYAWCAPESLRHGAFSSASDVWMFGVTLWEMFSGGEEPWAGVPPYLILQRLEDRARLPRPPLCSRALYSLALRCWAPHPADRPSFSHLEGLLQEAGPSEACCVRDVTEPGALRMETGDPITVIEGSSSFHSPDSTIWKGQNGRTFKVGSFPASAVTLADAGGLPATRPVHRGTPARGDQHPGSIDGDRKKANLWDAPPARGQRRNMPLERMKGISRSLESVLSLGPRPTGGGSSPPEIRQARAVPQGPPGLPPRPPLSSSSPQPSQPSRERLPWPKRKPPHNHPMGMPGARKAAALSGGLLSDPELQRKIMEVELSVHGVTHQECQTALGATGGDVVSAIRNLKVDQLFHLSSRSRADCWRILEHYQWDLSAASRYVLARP
In short: as §1

[12] = target: ERBB2/HER2 (Homo sapiens, UniProt P04626)
Chain of ERBB2/HER2 (P04626 whole entry): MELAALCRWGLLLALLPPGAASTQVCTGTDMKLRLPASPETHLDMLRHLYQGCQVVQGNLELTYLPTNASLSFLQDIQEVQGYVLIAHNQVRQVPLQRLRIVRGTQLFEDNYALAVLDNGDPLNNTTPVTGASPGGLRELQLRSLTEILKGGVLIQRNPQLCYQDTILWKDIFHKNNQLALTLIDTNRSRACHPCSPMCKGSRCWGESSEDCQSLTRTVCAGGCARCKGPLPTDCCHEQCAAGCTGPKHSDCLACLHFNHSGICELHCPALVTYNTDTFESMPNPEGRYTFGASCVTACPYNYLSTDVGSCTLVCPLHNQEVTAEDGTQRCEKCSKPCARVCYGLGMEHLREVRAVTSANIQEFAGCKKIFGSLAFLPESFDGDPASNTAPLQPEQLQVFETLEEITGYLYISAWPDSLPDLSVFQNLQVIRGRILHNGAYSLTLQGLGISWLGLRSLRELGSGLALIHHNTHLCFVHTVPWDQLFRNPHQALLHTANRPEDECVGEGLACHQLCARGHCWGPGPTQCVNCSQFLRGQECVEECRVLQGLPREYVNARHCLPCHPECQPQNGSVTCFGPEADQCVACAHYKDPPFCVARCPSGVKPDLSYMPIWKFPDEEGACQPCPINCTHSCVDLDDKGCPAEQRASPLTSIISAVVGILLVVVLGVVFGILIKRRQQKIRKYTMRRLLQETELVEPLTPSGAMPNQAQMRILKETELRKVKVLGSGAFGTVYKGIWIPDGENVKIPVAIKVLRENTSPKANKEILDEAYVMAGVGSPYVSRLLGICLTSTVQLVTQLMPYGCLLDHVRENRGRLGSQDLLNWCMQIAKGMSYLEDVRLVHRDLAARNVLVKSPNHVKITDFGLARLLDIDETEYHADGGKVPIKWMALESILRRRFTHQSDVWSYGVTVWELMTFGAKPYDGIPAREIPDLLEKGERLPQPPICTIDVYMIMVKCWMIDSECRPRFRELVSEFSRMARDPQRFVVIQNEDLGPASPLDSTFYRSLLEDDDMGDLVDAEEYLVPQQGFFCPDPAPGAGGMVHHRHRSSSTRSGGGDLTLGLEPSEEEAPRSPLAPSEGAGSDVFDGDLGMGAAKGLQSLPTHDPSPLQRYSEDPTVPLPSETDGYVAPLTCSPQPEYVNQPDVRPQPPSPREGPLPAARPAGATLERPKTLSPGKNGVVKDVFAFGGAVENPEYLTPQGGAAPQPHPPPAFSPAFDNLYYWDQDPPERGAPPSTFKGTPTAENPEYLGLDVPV
In short: as §1

[13] = target: PHKg2 (Homo sapiens, UniProt P15735)
In short: as §1

[14] = target: T5, CK1G3 (Homo sapiens, UniProt Q9Y6M4)
T5 construct: gene CSNK1G3
In short: as §1

[15] = target: T6, RSK3 (Homo sapiens, UniProt Q15349)
T6 construct: gene RPS6KA2
T6 sequence (Q15349 whole entry): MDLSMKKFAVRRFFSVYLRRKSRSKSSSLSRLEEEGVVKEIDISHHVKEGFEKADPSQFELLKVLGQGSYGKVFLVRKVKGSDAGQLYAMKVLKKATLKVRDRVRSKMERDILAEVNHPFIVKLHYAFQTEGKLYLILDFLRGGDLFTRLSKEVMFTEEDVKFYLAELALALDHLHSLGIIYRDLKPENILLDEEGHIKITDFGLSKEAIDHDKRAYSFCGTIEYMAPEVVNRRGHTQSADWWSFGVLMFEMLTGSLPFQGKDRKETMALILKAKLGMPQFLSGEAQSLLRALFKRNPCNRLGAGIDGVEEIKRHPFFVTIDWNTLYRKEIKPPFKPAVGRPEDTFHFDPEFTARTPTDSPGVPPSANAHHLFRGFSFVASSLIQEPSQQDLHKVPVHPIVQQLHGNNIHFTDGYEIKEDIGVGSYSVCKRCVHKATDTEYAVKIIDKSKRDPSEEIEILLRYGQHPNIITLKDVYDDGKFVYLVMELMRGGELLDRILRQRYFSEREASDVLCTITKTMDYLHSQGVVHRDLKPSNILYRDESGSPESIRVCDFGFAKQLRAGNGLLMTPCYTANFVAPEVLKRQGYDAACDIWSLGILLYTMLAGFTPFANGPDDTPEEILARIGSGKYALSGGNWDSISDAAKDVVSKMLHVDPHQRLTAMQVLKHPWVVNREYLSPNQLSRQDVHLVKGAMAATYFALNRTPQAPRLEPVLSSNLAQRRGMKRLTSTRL
In short: as §1

[16] = read-out: % Enzyme Activity (relative to DMSO controls) / TP-0005801 (0.3µM) / Data 1
[17] = read-out: % Enzyme Activity (relative to DMSO controls) / TP-0005801 (0.3µM) / Data 2

`COc1cc(N2CCN(C)CC2)c(C)cc1Nc1ncc(Br)c(Nc2cccnc2N(C)C)n1` [TP-5801] was tested, and the remaining activity at 0.3 µM [1, 16] was 101%, the remaining activity at 0.3 µM [1, 17] was 100% and the remaining activity at 0.3 µM [2, 16] was 30.6%. It also gave a remaining activity at 0.3 µM [2, 17] of 29.7%, a remaining activity at 0.3 µM [3, 16] of 101% and a remaining activity at 0.3 µM [3, 17] of 95.8%. For the same compound, the remaining activity at 0.3 µM [4, 16] was 3%, the remaining activity at 0.3 µM [4, 17] was 2.81% and the remaining activity at 0.3 µM [5, 16] was 101%. The remaining activity at 0.3 µM [5, 17] was 92.7%, the remaining activity at 0.3 µM [6, 16] was 91.5% and the remaining activity at 0.3 µM [6, 17] was 86.4%. The remaining activity at 0.3 µM [7, 16] was 105%, the remaining activity at 0.3 µM [7, 17] was 104% and the remaining activity at 0.3 µM [8, 16] was 89.8%. For the same compound, the remaining activity at 0.3 µM [8, 17] was 88.4%, the remaining activity at 0.3 µM [9, 16] was 10.1% and the remaining activity at 0.3 µM [9, 17] was 9.96%. It also gave a remaining activity at 0.3 µM [10, 16] of 97%, a remaining activity at 0.3 µM [10, 17] of 92.9% and a remaining activity at 0.3 µM [11, 16] of 0.98%. For the same compound, the remaining activity at 0.3 µM [11, 17] was 0.83%, the remaining activity at 0.3 µM [12, 16] was 82.3% and the remaining activity at 0.3 µM [12, 17] was 81.7%. It also gave a remaining activity at 0.3 µM [13, 16] of 72.4%, a remaining activity at 0.3 µM [13, 17] of 71.3% and a remaining activity at 0.3 µM [14, 16] of 94.7%. The remaining activity at 0.3 µM [14, 17] was 93.6%, the remaining activity at 0.3 µM [15, 16] was 80.3% and the remaining activity at 0.3 µM [15, 17] was 79.2%.
